Earlier results on 4 compounds are cited in patent US20200246414A1, “COMPOSITIONS AND METHODS FOR THE TREATMENT OF CONSTIPATION AND OTHER AILMENTS OF THE GASTROINTESTINAL SYSTEM” (K.L.R.M., LLC, priority 2019, published 2020).

This series has as its system isolated gastric cells. Particulars: suspension of isolated gastric cells.
With `CCCC(=O)Nc1nc2c(ncn2C2O[C@H]3COP(=O)(O)O[C@@H]3[C@@H]2OC(=O)CCC)c(=O)[nH]1` (stereo partly shown) [Dibutyryl cyclic GMP], the “mucus secretion / mucus release” value is given as “increased the mucus release”.

As to `CC(=O)N[C@H](C(=O)O)C(C)(C)SN=O` (racemic) [S-nitroso-N-acetylpenicillamine], the “mucus secretion / mucus release” value was “stimulated mucus secretion”.

With `O=[N+]([O-])O[C@H]1CO[C@H]2[C@@H]1OC[C@H]2O[N+](=O)[O-]` [isosorbide dinitrate], the “mucus secretion / mucus release” value is given as “stimulated mucus secretion”.

With `CCCOc1ccccc1-c1nc2[nH]nnc2c(=O)[nH]1` [M and B 22948], the “mucus secretion / mucus release” value was “increased the mucus release”.
